Data on 25 compounds can be found in patent US20190002436A1, “RESPIRATORY SYNCYTIAL VIRUS INHIBITORS” (MEDIVIR AB, priority 2015, published 2019).

pEC50: −log10 of the molar value. Like-named read-outs stand apart in the source and are kept apart here.

The experiment has as its system RSV (Long). Description: RSV cytopathic effect (CPE)-based viral replication assay. Format: cell-based, respiratory syncytial virus (RSV). The settings on record: HEp-2 cells infected with RSV Long at MOI 0.015, 3 days at 37° C., cell viability by CellTiter-Glo luminescence, read-out: EC50 (nm). The procedure, abridged:
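HEp-2 cells, 2,500 per well in DMEM with 2% heat-inactivated FBS, treated with 10-point compound dilutions and infected with RSV Long at MOI 0.015. After 3 days at 37 °C, 5% CO2, viability read by CellTiter-Glo luminescence; EC50 derived from CPE data.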

Setting [1] is: human respiratory syncytial virus, HEp-2, 72 h.

With `COC(=O)C1CC2(C1)C(=O)N(Cc1ncc3ccccc3c1-c1ccc(C3(N)CC3)nc1)c1cnccc12` (stereo not shown) [Example 2002], the pEC50 under setting [1] is 8.27.

Consider `COC(=O)N1CC2(C1)C(=O)N(Cc1nc(C(F)F)c3ccccc3c1-c1cccnc1)c1ccccc12` [Example 2003], for which the pEC50 under setting [1] was 6.00.

On to `NC1(CNC(=O)N2CC3(C2)C(=O)N(Cc2ncc4ccccc4c2-c2cncc(F)c2)c2ccccc23)CC1` [Example 2004], for which, under setting [1], the pEC50 is 8.52.

As for `CNC1(C(=O)N2CC3(C2)C(=O)N(Cc2ncc4ccccc4c2-c2ccc(NS(C)(=O)=O)cn2)c2ccccc23)CC1` [Example 2005], the pEC50 under setting [1] is 6.64.

With `CS(=O)(=O)Nc1cncc(-c2c(CN3C(=O)C4(CN(C(=O)C5(N)CC5)C4)c4ccccc43)ncc3ccccc23)c1` [Example 2006], the pEC50 under setting [1] was 7.59.

On to `NC(=O)c1ccc(-c2c(CN3C(=O)C4(CCN(C(=O)C(N)C(F)(F)F)CC4)c4ccncc43)ncc3ccccc23)cn1` (stereo not shown) [Example 2007], for which, under setting [1], the pEC50 was 8.40.

As to `NC(=O)c1ccc(-c2c(CN3C(=O)C4(CN(C(=O)C5(N)CC5)C4)c4ccccc43)ncc3ccccc23)cn1` [Example 2008], the pEC50 under setting [1] is 7.82.

As for `CS(=O)(=O)N1CCC2(CC1)C(=O)N(Cc1ncc3cc(Cl)ccc3c1-c1ccncc1)c1cnccc12` [Example 2009], the pEC50 under setting [1] was 9.46.

`CS(=O)(=O)N1CCC2(CC1)C(=O)N(Cc1ncc3cc(F)ccc3c1-c1cncs1)c1cnccc12` [Example 2010]: the pEC50 under setting [1] was 8.82.

With `NC(=O)c1ccc(-c2c(CN3C(=O)C4(CCN(C(=O)[C@@H]5CC(F)(F)CN5)CC4)c4ccncc43)ncc3ccccc23)cn1` [Example 2011], the pEC50 under setting [1] is 7.68.

As for `NC1(C(=O)N2CCC3(CC2)C(=O)N(Cc2ncc4ccccc4c2-c2nccs2)c2cnccc23)CC1` [Example 2012], the pEC50 under setting [1] was 6.42.

`NC(=O)c1ccc(-c2c(CN3C(=O)C4(CCN(C(=O)[C@H]5CCCN5)CC4)c4ccncc43)ncc3ccccc23)cn1` [Example 2013]: the pEC50 under setting [1] was 8.18.

As to `CS(=O)(=O)N1CCC2(CC1)C(=O)N(Cc1ncc3ccccc3c1-c1ccncc1)c1cnccc12` [Example 2014], the pEC50 under setting [1] was 8.59.

Take `NC1(C(=O)N2CCC3(CC2)C(=O)N(Cc2ncc4ccccc4c2-c2ccc(S(N)(=O)=O)cc2)c2cnccc23)CC1` [Example 2015]: the pEC50 under setting [1] was 8.41.

Take `NC1(C(=O)N2CCC3(CC2)C(=O)N(Cc2ncc4ccccc4c2-c2ccncc2)c2cnccc23)CC1` [Example 2016]: the pEC50 under setting [1] is 8.15.

Consider `CS(=O)(=O)N1CCC2(CC1)C(=O)N(Cc1ncc3ccccc3c1-c1cnc(C(N)=O)cn1)c1cnccc12` [Example 2017], for which the pEC50 under setting [1] was 7.47.

On to `CS(=O)(=O)N1CCC2(CC1)C(=O)N(Cc1ncc3ccccc3c1C1CNC(=O)C1)c1cnccc12` (stereo not shown) [Example 2018], for which the pEC50 is 7.30.

For the compound `O=C1CC(c2c(Cn3c(=O)n(C4CC4)c4ccncc43)ncc3ccccc23)CN1` (stereo not shown) [Example 2019], the negative logarithm of the EC50 (pEC50) is 7.82.

For `O=C1CC(c2c(Cn3c(=O)n(C4CC4)c4ccncc43)ncc3ccccc23)CN1` (stereo not shown) [Example 2020], the pEC50 was 7.10.

In the case of `NC1(C(=O)N2CCC3(CC2)C(=O)N(Cc2ncc4ccccc4c2-c2ncco2)c2cnccc23)CC1` [Example 2021], under setting [1], the pEC50 was 6.16.

In the case of `CC1(n2c(=O)n(Cc3ncc4ccccc4c3-c3ccc(C4(N)COC4)nc3)c3cnccc32)CC1` [Example 2022], the pEC50 under setting [1] is 7.72.

Take `CS(=O)(=O)N1CCC2(CC1)C(=O)N(Cc1ncc3ccccc3c1-c1cc[nH]c1)c1cnccc12` [Example 2023]: the pEC50 under setting [1] was 7.37.

As for `NC1(C(=O)N2CCC3(CC2)C(=O)N(Cc2ncc4ccccc4c2-c2cncs2)c2cnccc23)CC1` [Example 2024], the pEC50 under setting [1] is 8.09.

Consider `CS(=O)(=O)N1CCC2(CC1)C(=O)N(Cc1ncc3ccccc3c1-c1ccc(C3(N)CC3)nc1)c1cnccc12` [Example 2026], for which, under setting [1], the pEC50 is 8.66.

Take `NC1(C(=O)N2CCC3(CC2)C(=O)N(Cc2ncc4ccccc4c2-c2cnc(C(F)(F)F)s2)c2cnccc23)CC1` [Example 2028]: the pEC50 under setting [1] was 7.89.
